Patent US7560453B2, “6-(2, 3, 4, 5-tetrahydro-1H-benzo [D] azepin-7-yloxy) -nicotamide derivatives as radio labelled ligands” (Glaxo Group Limited, priority 2005, dated 2009)

Experiments:
[1] = tested on: histamine H3 receptor; assay: PET imaging with Compound A in pig brain; assay type: in vivo
Description: The animals (pig, Yorkshire/Danish Landrace (˜40 Kg; n=2) were housed singly in thermostatically controlled (20° C.) and naturally illuminated stalls. They were scanned under terminal anaesthesia (ketamine induced isoflurane anaesthesia) on different days. The left femoral artery and vein of each animal were surgically cannulated using catheters (Avanti® size 4F-7F). Blood samples were collected from the femoral artery and the radiolabelled and non-labelled agents were injected to the femoral vein. Animals were placed supine in a Siemens ECAT EXACT HR tomograph, with the head immobilized in a custom-made holding device. During the study, blood pH, pCO2 and pO2 levels were monitored and maintained within the normal physiological range. In addition, BP and heart rate were recorded throughout the study. Compound A was administered intravenously in the femoral vein as a 1 minute bolus injection. PET scanning and arterial blood sampling was commenced upon start of the radioligand administration.

[2] = tested on: histamine H3 receptors; settings: prior art radioligands; cited from earlier work
[3] = tested on: histamine H3 receptor; assay: PET imaging with pharmacological challenges (blocking of Compound A uptake); assay type: in vivo, pig
Description: Four sequential high specific activity iv radioligand Compound A administrations were performed in same animal, same day. Following a baseline scan, Compound A was co-administered with escalating dose of unlabelled unlabelled compound A (0.005, 0.05 and 0.5 mg/kg). [^15O]CO and [^15O]H2O were administered pre and post administration of unlabelled compound A to monitor and to correct for changes in cerebral blood volume and changes in cerebral blood flow. […] A similar experiment was performed using escalating dose of ciproxifan (0.006, 0.06, 0.6 and 2.0 mg/kg), a known selective histamine H3 antagonist.

[4] = biological target: T1, human histamine H3 receptor (Homo sapiens, UniProt Q9Y5N1); assay: Competition binding assay using [125I]iodoproxifan, cell lines stably expressing human histamine H3 receptor
T1 construct: expressed in transfected cells
Description: The in vitro affinity of unlabelled Compound A for the histamine H3 receptor was determined by competition assay using [^125I]iodoproxifan as radioligand binding to cell lines stably expressing human histamine H3 receptor.^13

[5] = biological target: Human receptor H4 (Homo sapiens, UniProt Q9H3N8); assay: Binding affinity, human H4 receptor; settings: read-out: Binding affinity (pKi), human H4 (converted)
[6] = biological target: Human receptor H1 (Homo sapiens, UniProt P35367); assay: Binding affinity, human H1 receptor; settings: read-out: Binding affinity (pKi), human H1 (converted)
[7] = biological target: Human receptor H2 (Homo sapiens, UniProt P25021); assay: Binding affinity, human H2 receptor; settings: read-out: Binding affinity (pKi), human H2 (converted)
[8] = 2.0 mg/kg ciproxifan, 85 min post-injection

T1 sequence (Q9Y5N1 whole entry): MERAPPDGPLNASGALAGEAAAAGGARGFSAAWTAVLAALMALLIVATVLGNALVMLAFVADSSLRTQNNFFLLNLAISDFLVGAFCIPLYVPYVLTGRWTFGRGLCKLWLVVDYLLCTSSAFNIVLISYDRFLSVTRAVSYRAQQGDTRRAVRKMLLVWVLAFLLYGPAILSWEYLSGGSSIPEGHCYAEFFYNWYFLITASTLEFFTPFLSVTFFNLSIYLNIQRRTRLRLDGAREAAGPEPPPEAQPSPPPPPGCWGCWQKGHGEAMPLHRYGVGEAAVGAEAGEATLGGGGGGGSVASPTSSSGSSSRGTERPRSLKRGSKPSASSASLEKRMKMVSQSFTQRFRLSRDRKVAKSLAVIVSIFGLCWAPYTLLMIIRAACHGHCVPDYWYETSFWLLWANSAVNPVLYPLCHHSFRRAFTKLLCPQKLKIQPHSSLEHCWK
Chain of Human receptor H1 (P35367 whole entry): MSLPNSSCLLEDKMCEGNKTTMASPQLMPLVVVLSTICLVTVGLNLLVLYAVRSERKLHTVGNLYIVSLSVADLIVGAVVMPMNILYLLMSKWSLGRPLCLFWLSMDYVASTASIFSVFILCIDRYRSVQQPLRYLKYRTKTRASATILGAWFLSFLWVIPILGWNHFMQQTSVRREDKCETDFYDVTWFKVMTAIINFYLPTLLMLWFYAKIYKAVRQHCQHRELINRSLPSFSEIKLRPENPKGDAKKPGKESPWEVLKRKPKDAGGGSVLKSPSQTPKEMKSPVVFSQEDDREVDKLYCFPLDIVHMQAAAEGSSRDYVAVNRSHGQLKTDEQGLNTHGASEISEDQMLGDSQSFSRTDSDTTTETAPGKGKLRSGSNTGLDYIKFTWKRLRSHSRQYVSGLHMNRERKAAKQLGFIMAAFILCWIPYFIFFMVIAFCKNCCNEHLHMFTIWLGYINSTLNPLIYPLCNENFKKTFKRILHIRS
Chain of Human receptor H2 (P25021 whole entry): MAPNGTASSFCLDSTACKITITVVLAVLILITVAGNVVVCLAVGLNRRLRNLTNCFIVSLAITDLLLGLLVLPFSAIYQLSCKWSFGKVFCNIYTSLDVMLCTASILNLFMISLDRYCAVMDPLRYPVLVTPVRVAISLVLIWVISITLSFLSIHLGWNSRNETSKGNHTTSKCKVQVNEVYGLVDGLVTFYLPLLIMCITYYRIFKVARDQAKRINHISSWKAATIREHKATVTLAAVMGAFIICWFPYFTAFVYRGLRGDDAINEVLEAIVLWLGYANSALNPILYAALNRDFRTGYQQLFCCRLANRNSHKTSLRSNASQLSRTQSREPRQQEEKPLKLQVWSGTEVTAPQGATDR
Chain of Human receptor H4 (Q9H3N8 whole entry): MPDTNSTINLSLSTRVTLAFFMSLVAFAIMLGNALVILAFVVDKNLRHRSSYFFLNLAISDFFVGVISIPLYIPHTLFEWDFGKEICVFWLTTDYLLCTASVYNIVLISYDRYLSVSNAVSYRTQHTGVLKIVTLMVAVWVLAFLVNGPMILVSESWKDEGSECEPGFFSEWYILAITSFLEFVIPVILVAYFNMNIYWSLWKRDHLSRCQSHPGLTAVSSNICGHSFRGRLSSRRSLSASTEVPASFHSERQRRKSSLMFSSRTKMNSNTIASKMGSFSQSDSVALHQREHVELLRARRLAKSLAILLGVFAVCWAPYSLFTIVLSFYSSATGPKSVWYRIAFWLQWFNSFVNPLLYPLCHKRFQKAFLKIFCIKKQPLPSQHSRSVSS

## [11CH3]NC(=O)c1ccc(Oc2ccc3c(c2)CCN(C2CCC2)CC3)nc1 [Compound A, [^11C-N-methyl]-6-(3-cyclobutyl-2,3,4,5-tetrahydro-1H-benzo[d]azepin-7-yloxy)-nicotamide]
[1]
  Concentration in cerebellum: low
[1]; 85 min, baseline
  Ratio relative to cerebellum, frontal cortex: 5.3
  Ratio relative to cerebellum, occipital cortex: 3.8
  Ratio relative to cerebellum, parietal cortex: 4.9
  Ratio relative to cerebellum, striatum: 9.0
  Ratio relative to cerebellum, thalamus: 3.4
[1]; after administration of the radiotracer
  Time of peak brain uptake of radioactivity: 25 min
[1]; higher accumulation in striatum, cortices, thalamus, hypothalamus
  Regional brain distribution: reflected the known distribution of the histamine H3 receptor
[1]; iv 1 minute bolus
  Brain entry: readily enters the pig brain

## [123I]c1ccc(COCCCc2cnc[nH]2)cc1 [[^123I]iodoproxifan]
[2]
  Alteration of brain distribution by selective H3 receptor ligand: no significant alteration of the brain distribution by selective H3 receptor ligand

## O=C(c1ccc(OCCCc2cnc[nH]2)cc1)C1CC1 [ciproxifan]
[3]; [8]
  Ratio tissue to cerebellum of Compound A, frontal cortex: 1.08
  Ratio tissue to cerebellum of Compound A, occipital cortex: 0.99
  Ratio tissue to cerebellum of Compound A, parietal cortex: 0.91
  Ratio tissue to cerebellum of Compound A, striatum: 1.22
  Ratio tissue to cerebellum of Compound A, thalamus: 0.72
[3]; escalating dose 0.006, 0.06, 0.6 and 2.0 mg/kg
  Effect on Compound A uptake in H3-rich brain regions: dose-dependent decrease

## CNC(=O)c1ccc(Oc2ccc3c(c2)CCN(C2CCC2)CC3)nc1 [unlabelled Compound A]
[4]; H3 versus other receptors
  Selectivity over other receptors: high selective over other receptors
[4]; [125I]iodoproxifan as radioligand, read-out: Binding affinity (pKi), human H3 (converted)
  Ki: 0.000257 µM
[5]
  Ki: > 3.16 µM
[3]; co-administered at 0.005, 0.05 and 0.5 mg/kg
  Effect on specific uptake of radiotracer Compound A: specific uptake of radiotracer was blocked
[6]
  Ki: 2.51 µM
[7]
  Ki: > 3.16 µM
